# Assay results reported in BindingDB's records for doi:10.3109/14756366.2010.515215 (Gyeongsang National University, 2011).
# How the values were obtained:
# Assay in all cases: In Vitro Kinase Assay
# Details in all cases: pH 7
# [1] = target: ALK tyrosine kinase receptor (Homo sapiens, UniProt Q9UM73)
# Experimental: (§1) Inhibition of kinase activity against a variety of recombinant kinases [FLT3, FLT3 D835Y, anaplastic lymphoma kinase (ALK), insulin receptor, and epidermal growthfactor receptor (EGFR)] was measured using homogeneous time-resolved fluorescence (HTRF) assays [Choi et al., Bioorg. Med. Chem. Lett., 20:2033-2037]. Assays consist of enzymes mixed with serially diluted compounds and peptide substrates in a kinase reaction buffer (250 mM HEPES (pH 7.0), 0.5 mM orthovanadate, 0.05% bovine serum albumin, 0.1% NaN3). Following the addition of reagents for detection, the TR-FRET signal was measured using an EnVision multi-label reader (Perkin Elmer, Waltham, MA).
# Insulin receptor = Insulin receptor (Homo sapiens, UniProt P06213)
# Sequence of Insulin receptor (P06213 28-758 limits assumed): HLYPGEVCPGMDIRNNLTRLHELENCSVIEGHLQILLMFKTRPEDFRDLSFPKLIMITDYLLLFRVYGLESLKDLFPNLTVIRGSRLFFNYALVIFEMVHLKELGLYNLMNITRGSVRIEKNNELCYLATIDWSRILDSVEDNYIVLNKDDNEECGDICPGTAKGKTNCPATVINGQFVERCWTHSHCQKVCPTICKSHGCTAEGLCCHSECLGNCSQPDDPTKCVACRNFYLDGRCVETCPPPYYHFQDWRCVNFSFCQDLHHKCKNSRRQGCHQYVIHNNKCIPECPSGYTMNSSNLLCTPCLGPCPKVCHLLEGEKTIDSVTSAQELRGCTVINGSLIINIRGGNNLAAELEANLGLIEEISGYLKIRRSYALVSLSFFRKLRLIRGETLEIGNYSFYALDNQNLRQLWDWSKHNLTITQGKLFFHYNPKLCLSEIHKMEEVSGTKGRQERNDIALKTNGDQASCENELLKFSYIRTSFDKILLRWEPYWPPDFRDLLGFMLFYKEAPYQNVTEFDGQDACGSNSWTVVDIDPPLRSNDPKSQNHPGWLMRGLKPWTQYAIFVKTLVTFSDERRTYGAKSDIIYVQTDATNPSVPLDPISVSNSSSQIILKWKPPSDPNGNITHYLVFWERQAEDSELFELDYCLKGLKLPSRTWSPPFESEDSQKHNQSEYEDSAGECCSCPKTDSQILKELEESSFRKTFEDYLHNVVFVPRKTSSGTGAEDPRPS
# Sequence of Insulin receptor (P06213 763-1382 limits assumed): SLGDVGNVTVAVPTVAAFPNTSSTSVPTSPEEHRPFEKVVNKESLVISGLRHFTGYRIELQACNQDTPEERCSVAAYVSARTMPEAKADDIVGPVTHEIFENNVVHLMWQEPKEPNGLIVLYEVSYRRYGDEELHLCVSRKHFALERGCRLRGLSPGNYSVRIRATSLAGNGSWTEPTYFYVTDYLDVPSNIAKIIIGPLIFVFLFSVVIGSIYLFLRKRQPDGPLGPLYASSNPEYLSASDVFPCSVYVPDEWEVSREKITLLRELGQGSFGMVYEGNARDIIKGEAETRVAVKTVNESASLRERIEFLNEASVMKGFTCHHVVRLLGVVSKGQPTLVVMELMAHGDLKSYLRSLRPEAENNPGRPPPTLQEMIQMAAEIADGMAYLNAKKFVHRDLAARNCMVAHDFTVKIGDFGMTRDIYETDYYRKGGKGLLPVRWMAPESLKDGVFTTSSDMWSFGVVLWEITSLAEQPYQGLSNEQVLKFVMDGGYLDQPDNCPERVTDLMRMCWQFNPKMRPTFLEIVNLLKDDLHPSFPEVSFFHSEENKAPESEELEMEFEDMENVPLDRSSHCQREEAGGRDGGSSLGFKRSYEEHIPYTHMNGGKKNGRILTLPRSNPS
# Experimental: as §1
# [2] = target: Epidermal growth factor receptor (Homo sapiens, UniProt P00533)
# Sequence of Epidermal growth factor receptor (P00533 whole entry): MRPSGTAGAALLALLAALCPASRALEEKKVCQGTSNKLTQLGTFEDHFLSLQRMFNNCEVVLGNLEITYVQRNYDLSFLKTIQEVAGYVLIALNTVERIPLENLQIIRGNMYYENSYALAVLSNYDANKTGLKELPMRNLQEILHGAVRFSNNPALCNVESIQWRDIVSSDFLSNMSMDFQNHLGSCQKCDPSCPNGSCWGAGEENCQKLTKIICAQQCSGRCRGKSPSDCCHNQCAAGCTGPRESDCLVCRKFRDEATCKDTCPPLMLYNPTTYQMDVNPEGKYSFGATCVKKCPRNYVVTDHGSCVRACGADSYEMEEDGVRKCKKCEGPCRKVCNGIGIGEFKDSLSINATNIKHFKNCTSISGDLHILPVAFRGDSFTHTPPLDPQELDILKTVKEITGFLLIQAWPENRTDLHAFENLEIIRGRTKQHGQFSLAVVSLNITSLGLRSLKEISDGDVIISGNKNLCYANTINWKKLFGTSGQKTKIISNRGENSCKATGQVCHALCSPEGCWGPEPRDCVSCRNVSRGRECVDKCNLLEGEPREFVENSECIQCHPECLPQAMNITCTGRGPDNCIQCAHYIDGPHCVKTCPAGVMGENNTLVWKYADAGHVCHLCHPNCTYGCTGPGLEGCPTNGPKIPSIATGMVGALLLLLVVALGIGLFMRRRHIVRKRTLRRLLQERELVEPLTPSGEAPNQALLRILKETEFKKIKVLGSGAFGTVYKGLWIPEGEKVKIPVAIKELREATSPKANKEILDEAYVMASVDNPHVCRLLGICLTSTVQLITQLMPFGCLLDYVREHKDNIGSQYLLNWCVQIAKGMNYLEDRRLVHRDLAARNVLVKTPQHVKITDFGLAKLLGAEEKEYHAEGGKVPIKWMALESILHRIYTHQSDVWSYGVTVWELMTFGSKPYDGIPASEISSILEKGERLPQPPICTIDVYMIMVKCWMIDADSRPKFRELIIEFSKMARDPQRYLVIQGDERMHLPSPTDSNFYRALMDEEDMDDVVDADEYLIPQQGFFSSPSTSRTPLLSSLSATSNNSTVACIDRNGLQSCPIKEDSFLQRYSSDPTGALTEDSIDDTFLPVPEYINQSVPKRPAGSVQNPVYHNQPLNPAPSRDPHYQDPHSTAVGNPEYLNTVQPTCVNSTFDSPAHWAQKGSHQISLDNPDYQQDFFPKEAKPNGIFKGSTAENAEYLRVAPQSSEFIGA
# Experimental: as §1
# Sequence of ALK tyrosine kinase receptor (Q9UM73 whole entry): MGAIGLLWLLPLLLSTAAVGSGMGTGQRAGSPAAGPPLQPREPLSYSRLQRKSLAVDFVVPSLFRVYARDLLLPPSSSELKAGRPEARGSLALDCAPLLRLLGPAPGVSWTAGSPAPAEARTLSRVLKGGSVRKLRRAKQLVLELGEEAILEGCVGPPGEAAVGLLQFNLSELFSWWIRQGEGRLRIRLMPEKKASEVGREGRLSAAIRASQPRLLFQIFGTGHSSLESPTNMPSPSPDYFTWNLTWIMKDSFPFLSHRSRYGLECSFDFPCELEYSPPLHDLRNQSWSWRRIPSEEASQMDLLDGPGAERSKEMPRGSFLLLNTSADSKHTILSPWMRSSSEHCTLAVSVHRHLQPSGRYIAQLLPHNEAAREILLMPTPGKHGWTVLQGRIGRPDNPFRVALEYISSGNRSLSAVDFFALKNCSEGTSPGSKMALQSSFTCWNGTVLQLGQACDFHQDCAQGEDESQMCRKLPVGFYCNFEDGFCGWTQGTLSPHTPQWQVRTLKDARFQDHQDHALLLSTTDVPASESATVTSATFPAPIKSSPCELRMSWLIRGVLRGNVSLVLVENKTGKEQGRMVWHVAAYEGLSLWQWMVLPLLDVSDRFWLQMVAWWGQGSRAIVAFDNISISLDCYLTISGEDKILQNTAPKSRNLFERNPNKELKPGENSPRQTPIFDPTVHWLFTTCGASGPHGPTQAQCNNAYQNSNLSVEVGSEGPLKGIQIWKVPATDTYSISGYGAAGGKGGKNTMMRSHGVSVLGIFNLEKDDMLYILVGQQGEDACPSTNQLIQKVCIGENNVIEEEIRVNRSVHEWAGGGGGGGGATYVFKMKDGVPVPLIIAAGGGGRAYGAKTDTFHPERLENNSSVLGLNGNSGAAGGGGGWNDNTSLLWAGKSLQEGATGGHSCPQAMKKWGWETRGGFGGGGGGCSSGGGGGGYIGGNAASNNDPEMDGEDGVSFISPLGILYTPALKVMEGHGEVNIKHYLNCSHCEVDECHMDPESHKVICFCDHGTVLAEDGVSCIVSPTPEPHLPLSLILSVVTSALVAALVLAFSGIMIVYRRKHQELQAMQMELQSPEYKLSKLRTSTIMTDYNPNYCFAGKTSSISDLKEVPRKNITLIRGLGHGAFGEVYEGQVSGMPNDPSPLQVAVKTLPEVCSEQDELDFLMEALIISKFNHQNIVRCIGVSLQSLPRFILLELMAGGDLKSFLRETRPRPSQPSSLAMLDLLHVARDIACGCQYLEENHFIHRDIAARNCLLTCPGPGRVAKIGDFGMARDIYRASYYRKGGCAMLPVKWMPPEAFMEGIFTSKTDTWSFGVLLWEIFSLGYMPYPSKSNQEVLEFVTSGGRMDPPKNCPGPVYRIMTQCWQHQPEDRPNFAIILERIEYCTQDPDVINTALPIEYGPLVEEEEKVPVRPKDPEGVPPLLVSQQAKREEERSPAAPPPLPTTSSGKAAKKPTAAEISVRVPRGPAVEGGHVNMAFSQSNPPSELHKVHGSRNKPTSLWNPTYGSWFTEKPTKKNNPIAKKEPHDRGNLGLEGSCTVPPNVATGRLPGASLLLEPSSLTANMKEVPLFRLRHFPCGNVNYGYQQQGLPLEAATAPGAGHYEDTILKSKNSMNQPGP
structure (smiles),measurement,setting,value
O=c1c2cc(O)c(O)cc2oc2cc(O)c(C3O[C@H](CO)[C@@H](O)[C@H](O)[C@H]3O)c(O)c12 (stereo partly drawn) [Mangiferin],IC50,[1],810 nM
same,IC50,Insulin receptor,> 10 µM
same,IC50,[2],> 10 µM
